Marks after values point to notes of the source that are not given here.
Legend:
dipeptidyl peptidase-4 = target: T1, dipeptidyl peptidase-4 (Homo sapiens, UniProt P27487); experiment: dipeptidyl peptidase-4 inhibitory activity test in vitro (DPP-4 inhibitor screening kit); type: biochemical
T1 construct: purchased
Description: The above compounds are detected by DPP-4 inhibitor screening kit.

α-glucosidase = target: T2, α-glucosidase (Saccharomyces cerevisiae, UniProt P53341); experiment: α-glucosidase inhibitory activity test in vitro; type: biochemical; settings: read-out: α-glucosidase inhibitory activity (IC50)
T2 construct: purchased Sigma Corporation G5003

[1] = test system: hyperglycemia mice induced by alloxan; experiment: blood sugar of hyperglycemia mice induced by alloxan; type: in vivo, Kunming species mice
Protocol: Blood glucose determination kit (batch number 20140403) is purchased from Nanjing Jiancheng Bioengineering Institute. Methods: after being acclimatized for 1 week, 10 randomly selected Kunming species male mice of SPF level of 20±2 g are used as control group, while the other 50 mice are given alloxan to make model by intraperitoneal injection according to body weight 220 mg/kg.

HMG-CoA reductase = target: T3, HMG-CoA reductase (Homo sapiens, UniProt P04035); experiment: HMG-CoA reductase inhibitory activity test in vitro; type: biochemical
T3 sequence (P04035 426-888 limits assumed): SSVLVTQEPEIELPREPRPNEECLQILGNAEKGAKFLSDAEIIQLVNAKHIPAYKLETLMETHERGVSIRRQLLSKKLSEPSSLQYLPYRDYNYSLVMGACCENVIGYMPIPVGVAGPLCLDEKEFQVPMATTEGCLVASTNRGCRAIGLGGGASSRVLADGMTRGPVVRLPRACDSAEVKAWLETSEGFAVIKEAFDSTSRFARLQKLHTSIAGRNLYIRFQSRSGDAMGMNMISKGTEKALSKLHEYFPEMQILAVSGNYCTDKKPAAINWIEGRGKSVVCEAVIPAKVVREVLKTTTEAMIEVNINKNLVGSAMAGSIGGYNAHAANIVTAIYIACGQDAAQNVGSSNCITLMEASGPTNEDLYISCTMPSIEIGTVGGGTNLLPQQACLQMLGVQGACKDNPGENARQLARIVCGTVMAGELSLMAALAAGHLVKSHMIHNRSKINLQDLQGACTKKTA

[2] = target: T4, protein tyrosine phosphatase 1B (PTP-1B) (Homo sapiens, UniProt P18031); experiment: PTP-1B inhibitory activity test in vitro; type: biochemical
T4 sequence (P18031 1-435): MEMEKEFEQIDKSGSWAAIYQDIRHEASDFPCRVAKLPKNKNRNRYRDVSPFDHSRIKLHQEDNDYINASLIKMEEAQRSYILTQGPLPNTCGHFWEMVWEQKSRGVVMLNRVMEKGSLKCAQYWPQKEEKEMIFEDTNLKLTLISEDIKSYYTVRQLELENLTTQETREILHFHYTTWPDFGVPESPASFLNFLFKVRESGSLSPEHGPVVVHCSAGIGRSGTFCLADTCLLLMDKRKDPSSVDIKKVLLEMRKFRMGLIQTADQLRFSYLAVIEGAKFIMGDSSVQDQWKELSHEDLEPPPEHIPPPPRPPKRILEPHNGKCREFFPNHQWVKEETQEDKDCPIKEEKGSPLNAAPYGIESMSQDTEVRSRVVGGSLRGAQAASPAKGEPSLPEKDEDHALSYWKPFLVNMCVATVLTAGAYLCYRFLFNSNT
How it was run: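 Compound was preincubated 10 min at room temperature with 170 μg/mL PTP-1B solution, then 1 mM pNPP substrate was added and incubated 37 °C for 30 min. Reaction stopped with 3M NaOH; absorbance read at […], with blank and compound-background controls.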

aldose reductase = aldose reductase (Homo sapiens, UniProt P15121); experiment: aldose reductase inhibitory activity test in vitro; type: biochemical
How it was run: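 Absorbance assay with 0.1 mM NADPH solution and enzyme preincubated with compound 10 min at room temperature, then 10 mM D,L-glyceraldehyde solution added as substrate. Incubation 30 min at 37 °C in PBS. Read-out is optical density at 340 nm, corrected with blank (no compound) and background (no substrate) wells.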

T2 sequence (P53341 whole entry): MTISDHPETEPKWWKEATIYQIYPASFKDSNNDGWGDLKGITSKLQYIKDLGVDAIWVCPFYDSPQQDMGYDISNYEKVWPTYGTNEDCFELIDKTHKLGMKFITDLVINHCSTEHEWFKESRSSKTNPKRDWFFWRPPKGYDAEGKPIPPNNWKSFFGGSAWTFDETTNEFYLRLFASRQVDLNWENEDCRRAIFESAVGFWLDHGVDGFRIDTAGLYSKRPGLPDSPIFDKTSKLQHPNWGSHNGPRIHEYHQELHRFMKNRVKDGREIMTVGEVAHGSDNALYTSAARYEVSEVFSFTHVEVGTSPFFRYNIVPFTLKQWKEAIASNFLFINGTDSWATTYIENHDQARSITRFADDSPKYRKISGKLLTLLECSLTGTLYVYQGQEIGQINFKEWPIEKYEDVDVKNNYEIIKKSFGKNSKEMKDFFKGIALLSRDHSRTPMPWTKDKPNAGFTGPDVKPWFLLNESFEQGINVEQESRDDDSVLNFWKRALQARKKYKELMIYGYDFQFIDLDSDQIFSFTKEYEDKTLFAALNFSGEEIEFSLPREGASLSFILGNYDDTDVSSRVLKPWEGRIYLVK
T1 sequence (P27487 whole entry, species assumed): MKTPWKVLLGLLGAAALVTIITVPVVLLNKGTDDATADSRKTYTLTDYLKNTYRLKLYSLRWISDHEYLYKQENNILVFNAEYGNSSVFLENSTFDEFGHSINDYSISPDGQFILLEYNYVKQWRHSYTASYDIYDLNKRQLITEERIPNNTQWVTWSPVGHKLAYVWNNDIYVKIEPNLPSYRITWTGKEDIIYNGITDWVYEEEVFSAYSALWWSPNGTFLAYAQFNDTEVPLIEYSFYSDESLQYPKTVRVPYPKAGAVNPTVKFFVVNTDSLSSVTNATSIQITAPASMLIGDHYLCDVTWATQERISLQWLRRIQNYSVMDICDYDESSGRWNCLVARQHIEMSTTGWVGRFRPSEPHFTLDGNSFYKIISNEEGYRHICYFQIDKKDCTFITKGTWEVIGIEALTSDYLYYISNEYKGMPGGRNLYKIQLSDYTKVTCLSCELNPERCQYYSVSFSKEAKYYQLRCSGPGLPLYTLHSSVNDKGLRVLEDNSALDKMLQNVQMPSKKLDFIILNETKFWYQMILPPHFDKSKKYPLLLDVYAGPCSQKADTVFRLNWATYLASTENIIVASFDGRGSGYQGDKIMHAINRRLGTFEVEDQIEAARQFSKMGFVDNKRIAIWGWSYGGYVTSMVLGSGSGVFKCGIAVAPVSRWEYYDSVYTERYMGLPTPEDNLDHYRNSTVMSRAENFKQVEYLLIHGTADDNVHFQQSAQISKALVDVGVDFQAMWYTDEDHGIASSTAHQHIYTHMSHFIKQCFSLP

IC50 (dipeptidyl peptidase-4): 12 µM
IC50 (α-glucosidase): 0.23 µM
IC50 (HMG-CoA reductase): 3.6 µM
IC50 [2]: 12.5 µM
IC50 (aldose reductase): 58.2 µM
Structure (SMILES): CC(C)=CCC/C(C)=C/CCC1=C[C@@H](c2ccccc2)OC1=O [S16, (S,E)-3-(4,8-dimethylnona-3,7-dien-1-yl)-5-phenylfuran-2(5H)-one]
blood sugar after administration ([1]; 50 mg/kg intragastric, 10 days, fasted 10 hours): 6.12** mmol/L
blood sugar before administration ([1]; before administration): 15.25 mmol/L
